# ChEMBL document CHEMBL2331316, “Highly potent and selective cannabinoid receptor 2 agonists: initial hit optimization of an adamantyl hit series identified from high-through-put screening” (Bioorg Med Chem Lett, 2013)
# Assays:
# Cannabinoid receptor 1 [1] = biological target: T1, Cannabinoid receptor 1 (Homo sapiens, UniProt P21554); test: Agonist activity at human CB1 receptor by cAMP read-out assay; type: functional
# Cannabinoid receptor 2 [2] = biological target: T2, Cannabinoid receptor 2 (Homo sapiens, UniProt P34972); test: Agonist activity at human CB2 receptor by beta-arrestin recruitment assay
# Cannabinoid receptor 2 [3] = biological target: T2, Cannabinoid receptor 2; test: Agonist activity at human CB2 receptor by cAMP read-out assay; type: functional
# Cannabinoid receptor 1 [4] = biological target: T1, Cannabinoid receptor 1; test: Binding affinity to CB1 receptor (unknown origin)
# Cannabinoid receptor 2 [5] = biological target: T2, Cannabinoid receptor 2; test: Binding affinity to CB2 receptor (unknown origin)
# [6] = Metabolic stability in human microsomes assessed as maximal achievable bioavailability; type: ADME, Microsome; settings: read-out: Stability
# [7] = Permeability, Pe of the compound assessed as drug accumulation; type: ADME; settings: not told; read-out: permeability
# [8] = Permeability, Pe of the compound; type: ADME; settings: not told; read-out: permeability
# [9] = Lipophilicity, log D of the compound; type: physicochemical; settings: octanol/water
# [10] = Solubility, of the compound by LYSA assay; type: physicochemical
# Cannabinoid receptor 1 [11] = biological target: Cannabinoid receptor 1 (Mus musculus, UniProt P47746); test: Agonist activity at mouse CB1 receptor by cAMP read-out assay; type: functional
# Cannabinoid receptor 2 [12] = biological target: T3, Cannabinoid receptor 2 (Mus musculus, UniProt P47936); test: Binding affinity to mouse CB2 receptor
# Cannabinoid receptor 2 [13] = biological target: T2, Cannabinoid receptor 2; test: Binding affinity to human CB2 receptor
# Cannabinoid receptor 2 [14] = biological target: Cannabinoid receptor 2 (Homo sapiens, UniProt P34972, Q63R); test: Agonist activity at human CB2 receptor Q63R mutant
# Cannabinoid receptor 2 [15] = biological target: T3, Cannabinoid receptor 2; test: Agonist activity at mouse CB2 receptor by cAMP read-out assay; type: functional
# T1 sequence (P21554 whole entry): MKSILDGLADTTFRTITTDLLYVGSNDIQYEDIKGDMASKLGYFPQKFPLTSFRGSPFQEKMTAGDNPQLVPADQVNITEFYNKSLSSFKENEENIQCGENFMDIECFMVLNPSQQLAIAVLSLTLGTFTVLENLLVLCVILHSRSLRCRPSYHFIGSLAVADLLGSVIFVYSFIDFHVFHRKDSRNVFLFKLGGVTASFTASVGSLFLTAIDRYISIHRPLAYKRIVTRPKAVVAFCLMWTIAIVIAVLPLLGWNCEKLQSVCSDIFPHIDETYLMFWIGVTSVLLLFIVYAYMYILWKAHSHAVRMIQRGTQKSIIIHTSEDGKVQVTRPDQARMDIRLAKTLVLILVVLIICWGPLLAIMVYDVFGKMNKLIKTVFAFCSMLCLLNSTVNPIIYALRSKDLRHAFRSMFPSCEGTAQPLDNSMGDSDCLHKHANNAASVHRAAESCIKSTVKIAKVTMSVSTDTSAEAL
# T2 sequence (P34972 whole entry): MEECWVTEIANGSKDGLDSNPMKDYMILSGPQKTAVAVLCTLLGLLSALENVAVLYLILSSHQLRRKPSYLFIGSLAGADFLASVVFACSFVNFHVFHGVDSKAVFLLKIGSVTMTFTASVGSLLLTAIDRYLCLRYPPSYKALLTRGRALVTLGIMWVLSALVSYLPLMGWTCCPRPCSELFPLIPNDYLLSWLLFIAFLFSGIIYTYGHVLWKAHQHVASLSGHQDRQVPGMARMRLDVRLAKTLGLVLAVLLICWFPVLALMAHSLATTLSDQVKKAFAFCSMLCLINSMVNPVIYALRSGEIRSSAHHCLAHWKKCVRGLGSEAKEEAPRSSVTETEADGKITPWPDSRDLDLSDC
# Chain of Cannabinoid receptor 1 (Mus musculus, UniProt P47746) (P47746 whole entry): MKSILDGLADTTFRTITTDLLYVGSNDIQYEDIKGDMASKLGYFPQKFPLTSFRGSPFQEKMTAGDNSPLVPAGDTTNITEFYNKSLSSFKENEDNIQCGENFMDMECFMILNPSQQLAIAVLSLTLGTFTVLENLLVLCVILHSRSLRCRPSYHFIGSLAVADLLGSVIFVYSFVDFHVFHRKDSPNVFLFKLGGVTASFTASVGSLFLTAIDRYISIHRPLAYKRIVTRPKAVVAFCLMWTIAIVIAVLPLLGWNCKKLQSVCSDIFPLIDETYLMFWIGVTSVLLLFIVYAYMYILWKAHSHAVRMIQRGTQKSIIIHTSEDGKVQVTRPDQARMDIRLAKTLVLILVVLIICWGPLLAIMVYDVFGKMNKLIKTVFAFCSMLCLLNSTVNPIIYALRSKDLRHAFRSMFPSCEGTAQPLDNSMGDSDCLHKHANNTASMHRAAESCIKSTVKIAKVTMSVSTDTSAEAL
# T3 sequence (P47936 whole entry): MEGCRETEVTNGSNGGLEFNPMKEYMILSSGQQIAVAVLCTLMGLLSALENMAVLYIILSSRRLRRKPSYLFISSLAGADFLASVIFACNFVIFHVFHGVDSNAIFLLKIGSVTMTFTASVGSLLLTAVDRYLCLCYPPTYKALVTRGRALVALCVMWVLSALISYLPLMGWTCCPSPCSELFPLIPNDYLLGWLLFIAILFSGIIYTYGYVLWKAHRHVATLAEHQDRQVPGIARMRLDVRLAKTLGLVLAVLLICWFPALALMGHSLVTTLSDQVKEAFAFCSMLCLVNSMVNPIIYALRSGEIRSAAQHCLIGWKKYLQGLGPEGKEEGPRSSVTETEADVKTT
# Chain of Cannabinoid receptor 2 (Homo sapiens, UniProt P34972, Q63R) (P34972 whole entry Q63R): as the sequence (P34972 whole entry) above, with Q63R counted along it
SMILES,EC50 (Cannabinoid receptor 1 [1]) [nM],EC50 (Cannabinoid receptor 2 [2]) [nM],EC50 (Cannabinoid receptor 2 [3]) [nM],Ki (Cannabinoid receptor 1 [4]) [nM],Ki (Cannabinoid receptor 2 [5]) [nM],Fh [6] [%],Papp [7] [×10⁻⁶ cm/s],Papp [8] [×10⁻⁶ cm/s],logD [9],solubility [10] [µg/mL],EC50 (Cannabinoid receptor 1 [11]) [nM],Ki (Cannabinoid receptor 2 [12]) [nM],Ki (Cannabinoid receptor 2 [13]) [nM],EC50 (Cannabinoid receptor 2 [14]) [nM],EC50 (Cannabinoid receptor 2 [15]) [nM]
O=C(NC(=S)N1CCCCC1)C12CC3CC(CC(C3)C1)C2,> 10000,500,1400,–,–,–,–,–,–,–,–,–,–,–,–
Cc1csc(NC(=O)C23CC4CC(CC(C4)C2)C3)n1,> 10000,900,600,–,–,–,–,–,–,–,–,–,–,–,–
CCOc1ccc(NC(=O)C23CC4CC(CC(C4)C2)C3)cc1,> 10000,–,1200,–,–,–,–,–,–,–,–,–,–,–,–
CC(=O)c1ccccc1NC(=O)C12CC3CC(CC(C3)C1)C2,> 10000,–,100,–,–,–,–,–,–,–,–,–,–,–,–
CCOC(=O)c1ccccc1NC(=O)C12CC3CC(CC(C3)C1)C2,> 10000,76,15,–,–,–,–,–,–,–,–,–,–,–,–
COC(=O)c1cccc(NC(=O)C23CC4CC(CC(C4)C2)C3)c1,> 10000,–,> 10000,–,–,–,–,–,–,–,–,–,–,–,–
O=C(NC12CC3CC(CC(C3)C1)C2)c1nn(CCN2CCOCC2)c2ccccc12,–,–,–,6.8,0.15,–,–,–,–,–,–,–,–,–,–
COC1CCN(C(=O)C23CC4CC(CC(C4)C2)C3)c2ccccc21 (centres undefined),> 10000,1300,–,–,–,12,4.6,3.3,3.79,10,> 10000,5200,770,78,23
CCOC1CCN(C(=O)C23CC4CC(CC(C4)C2)C3)c2ccccc21 (centres undefined),> 10000,–,1.8,–,–,6,0.9,0.7,4.09,17,5000,> 10000,990,–,28
COCCOC1CCN(C(=O)C23CC4CC(CC(C4)C2)C3)c2ccccc21 (centres undefined),> 10000,900,20,–,–,5,5.7,4.4,3.82,97,> 10000,1500,350,24,20
CN1CCN(C(=O)C23CC4CC(CC(C4)C2)C3)c2ccccc21,> 10000,> 10000,29,–,–,10,–,–,4.09,< 1,> 10000,2800,500,71,22
O=C(N1CCc2ccccc21)C12CC3CC(CC(C3)C1)C2,> 10000,220,–,–,–,45,2,0.4,–,< 1,> 10000,> 10000,460,–,26
